# Reference: PMC10610494, “Anticancer Peptides Derived from Aldolase A and Induced Tumor-Suppressing Cells Inhibit Pancreatic Ductal Adenocarcinoma Cells” (Pharmaceutics, 2023)
# Key:
# PANC1 cells [1] = experiment: MTT-based viability assay; assay type: cell-based, human; conditions: for IC50: Homo sapiens
# Description: (§1) MTT-based assessment of metabolic activity involved seeding approximately 2000 cells into 96-well plates. These cells were subsequently incubated with treatment agents for two days. On day 4, the cells were subjected to staining with 0.5 mg/mL thiazolyl blue tetrazolium bromide (M5655, Sigma). The determination of metabolic activity was based on the measurement of optical density at 562 nm. For the evaluation of proliferation activity using the EdU assay, around 1000 cells were seeded into 96-well plates. A fluorescence-based cell proliferation kit (Click-iT™ EdU Alexa Fluor™ 488 Imaging Kit; Thermo Fisher, Waltham, MA, USA) was employed, following the manufacturer’s protocol. This kit facilitated the detection of EdU incorporation as an indicator of proliferating cells.
# [2] = tested on: human PDAC tissue fragments; experiment: Ex vivo PDAC tissue fragment assay; assay type: cell-based
# From the text: The utilization of human pancreatic cancer tissue was approved by the Indiana University Institutional Review Board (1911155674), and the tissue samples were sourced from the Indiana University Simon Comprehensive Cancer Center Tissue Procurement Core. A freshly procured pancreatic cancer tissue, weighing approximately 1 g, was manually sectioned into small fragments (ranging from 0.5 to 0.8 mm in length) using a scalpel. These fragments were subsequently cultured in DMEM supplemented with 10% FBS and antibiotics for one day. Following this initial incubation, the described conditioned medium (CM) was introduced and maintained for an additional four days, during which any alterations in fragment size were assessed.
# PA03C cells = experiment: MTT-based viability assay; assay type: cell-based, human; conditions: 25 μg/mL peptide, incubated two days, vs control
# Description: as §1
# PAN198 cells = experiment: MTT-based viability assay; assay type: cell-based, human; conditions: 25 μg/mL peptide, incubated two days, vs control
# Description: as §1
# PANC1 cells [3] = experiment: Wound-healing scratch assay (motility); assay type: cell-based, human; conditions: 25 μg/mL peptide, 0 h vs 24 h
# Description: To analyze the two-dimensional migratory behavior of PANC cells, a wound-healing scratch assay was employed to assess the change in the scratched area. Around 3 × 10^5 cells were seeded into 12-well plates on day 1. On day 2, a scratch was carefully created on the cell layer using the tip of a plastic pipette. The cells were then rinsed with DMEM to eliminate any detached cells. Images of the cell-free areas were captured at both 0 h and 24 h using a light microscope (40× magnification). The sizes of the cell-free zones were subsequently quantified using Image J (v1.5.4f).
# PANC1 cells [4] = experiment: EdU proliferation assay; assay type: cell-based, human; conditions: 25 μg of P04
# Description: as §1
# PANC1 cells [5] = experiment: Transwell invasion assay; assay type: cell-based, human; conditions: 25 μg of P04
# Description: To assess the invasive potential of tumor cells, a 12-well plate and transwell chambers (353,182, Thermo Fisher) featuring 8-µm pore size were employed. The transwell chambers were pre-coated with 300 µL of Matrigel (100 µg/mL), followed by the addition of 500 µL of serum-free medium. Afterward, the chambers were rinsed three times with a serum-free medium. Subsequently, approximately 7 × 10^4 cells in 300 µL of serum-free DMEM were introduced into the upper chamber, while 800 µL of the conditioned medium (CM) was added to the lower chamber. Upon completion of the experiment, cells that had invaded the lower side of the membrane were fixed and stained using methanol and crystal violet. Utilizing an inverted optical microscope (100×), five randomly selected images were captured. From these images, the average count of stained cells, serving as an indicator of the invasion capacity, was determined.
# ALDOA = experiment: Western blot analysis; assay type: cell-based, human
# Description: (§2) Cell lysis was achieved using RIPA lysis buffer (sc-24948, Santa Cruz Biotech, Dallas, TX, USA), supplemented with protease inhibitors (PIA32963, Thermo Fisher), and phosphatase inhibitors (2006643, Calbiochem, Billerica, MA, USA). Subsequently, proteins were separated using 10–15% SDS gels (Bio-Rad Laboratories, Hercules, CA, USA) and then transferred onto polyvinylidene difluoride membranes (IPVH00010, Millipore, Billerica, MA, USA). The membrane was first incubated with primary antibodies, followed by secondary antibodies (7074S/7076S, Cell Signaling, Danvers, MA, USA). Antibodies against ALDOA, Snail, p-Src, Src, cleaved caspase 3, caspase 3 (Cell Signaling), and K-Ras (Santa Cruz Biotech) were employed, with β-actin (Sigma) serving as a control. Protein levels were determined utilizing the Super-Signal West Femto Maximum Sensitivity Substrate (PI34096, Thermo Fisher), and signal intensities were quantified using a luminescent image analyzer (LAS-3000, Fuji Film, Tokyo, Japan).
# K-Ras = experiment: Western blot analysis; assay type: cell-based, human
# Description: as §2
# Snail = experiment: Western blot analysis; assay type: cell-based, human; conditions: 25 μg/mL P04
# Description: as §2
# cleaved caspase 3 = experiment: Western blot analysis; assay type: cell-based, human; conditions: 25 μg/mL P04
# Description: as §2
# p-Src = experiment: Western blot analysis; assay type: cell-based, human; conditions: 25 μg/mL P04
# Description: as §2
# MSCs = experiment: MTT-based viability of MSCs; assay type: cell-based, mice; conditions: P04; assay not specified, no data shown
# Description: Human pancreatic ductal adenocarcinoma (PDAC) cell lines including PANC1 (ATCC, Manassas, VA, USA), PANC198, and Pa03C (sourced from Indiana University Simon Comprehensive Cancer Center, Indianapolis, IN, USA) were cultured in DMEM (10-013-CV, Corning Inc., Corning, NY, USA). The breast cancer cell lines MDA-MB-231 and MDA-MB-436 (ATCC) were grown in RPMI-1640 medium (Gibco, Carlsbad, CA, USA). The culture media for all cell lines were supplemented with 10% fetal bovine serum and antibiotics (100 units/mL penicillin and 100 µg/mL streptomycin; Life Technologies, Grand Island, NY, USA). Jurkat T lymphocytes (ATCC) were cultured in RPMI-1640 medium (10-040-CV, Corning). Murine MSCs derived from the bone marrow of C57BL/6 mice were cultured in DMEM. All cell cultures were maintained at 37 °C with 5% CO2. The overexpression of ALDOA was accomplished by transfecting its plasmids (109,854; Addgene, Cambridge, MA, USA), while blank plasmids (FLAG-HA-pcDNA3.1; Addgene) were employed as controls.
# MTT-based assessment of metabolic activity involved seeding approximately 2000 cells into 96-well plates. These cells were subsequently incubated with treatment agents for two days. […] A fluorescence-based cell proliferation kit (Click-iT™ EdU Alexa Fluor™ 488 Imaging Kit; Thermo Fisher, Waltham, MA, USA) was employed, following the manufacturer’s protocol. […]
# [6] = PANC-1, chemotherapeutic agent alone
# [7] = PANC-1, chemotherapeutic agent together with 25 μg/mL P04
# [8] = following administration of rhALDOA
molecule,measurement,setting,value
"O=c1[nH]cc(F)c(=O)[nH]1 [5-Flu, 5-fluorouracil]",IC50,PANC1 cells [1]; [6],3300 nM
same,IC50,PANC1 cells [1]; [7],1600 nM
same,PDAC fragment size,"[2]; 10 μM 5-Flu alone, 96 h, n = 8",reduction
Nc1ccn([C@@H]2O[C@H](CO)[C@@H](O)C2(F)F)c(=O)n1 [gemcitabine],IC50,PANC1 cells [1]; [6],1000 nM
same,IC50,PANC1 cells [1]; [7],800 nM
"IGEHTPSALAIMENANVLAR [P04, anticancer peptide derived from aldolase A (ALDOA)]",MTT-based viability of PA03C cells,PA03C cells,reduction
same,MTT-based viability of PAN198 cells,PAN198 cells,reduction
same,MTT-based viability of PANC1 cells,"PANC1 cells [1]; 25 μg/mL peptide, incubated two days, vs control",reduction
same,scratch-based motility of PANC1 cells,PANC1 cells [3],reduction
same,EdU-based proliferation of PANC1 cells,PANC1 cells [4],discernible decrease
same,transwell-based invasion of PANC1 cells,PANC1 cells [5],discernible decrease
same,PDAC fragment size,"[2]; 25 μg/mL P04, 96 h, n = 8, patient tissue ex vivo",notable reduction
same,ALDOA level,"ALDOA; PANC1 cells, 25 μg/mL P04",decrease
same,K-Ras level,"K-Ras; PANC1 cells, 25 μg/mL P04",discernible reduction
same,Snail level,Snail; PAN198 cells,downregulation
same,Snail level,Snail; PANC1 cells,downregulation
same,cleaved caspase 3 level,cleaved caspase 3; PAN198 cells,increase
same,cleaved caspase 3 level,cleaved caspase 3; PANC1 cells,elevation
same,p-Src level,p-Src; PAN198 cells,downregulation
same,p-Src level,p-Src; PANC1 cells,downregulation
same,inhibitory effect on mesenchymal stem cells (MSC growth),MSCs,no inhibitory effect
"rhALDOA: human recombinant ALDOA protein (MBS8248528, MyBioSource) (protein, UniProt P04075 2-364, looked up) Fructose-bisphosphate …: PYQYPALTPEQKKELSDIAHRIVAPGKGILAADESTGSIAKRLQSIGTENTEENRRFYRQLLLTADDRVNPCIGGVILFHETLYQKADDGRPFPQVIKSKGGVVGIKVDKGVVPLAGTNGETTTQGLDGLSERCAQYKKDGADFAKWRCVLKIGEHTPSALAIMENANVLARYASICQQNGIVPIVEPEILPDGDHDLKRCQYVTEKVLAAVYKALSDHHIYLEGTLLKPNMVTPGHACTQKFSHEEIAMATVTALRRTVPPAVTGITFLSGGQSEEEASINLNAINKCPLLKPWALTFSYGRALQASALKAWGGKKENLKAAQEEYVKRALANSLACQGKYTPSGQAGAAASESLFVSNHAY",MTT-based viability of PANC1 cells,PANC1 cells [1]; 5 μg/mL recombinant ALDOA protein,notable reduction
same,ALDOA level,ALDOA; [8],discernible decreases
same,K-Ras level,K-Ras; [8],discernible decreases
